# Measured values published in patent US20080045504A1, “Benzonitrile Derivatives to Treat Musculoskeletal Frailty” (PFIZER PRODUCTS INC., priority 2004, published 2008).
# Marks after values point to notes of the source that are not given here.
# How the values were obtained:
# [1] = system: aged intact or orchidectomized (ORX) male rat; experiment: Effect on body weight, body composition and bone density in the aged intact and orchidectomized male rat; assay type: in vivo, SD rat
# Description: The purpose of this study is to test the effects of test compound in aged intact or orchidectomized (ORX) male rat model.
# Male SD rats at 11 months of age were sham-operated or ORX. One day post-surgery they were treated with test compound by subcutaneous injections (s.c.) at the average dose of 3 or 10 mg/kg per day for 8 weeks. The subcutaneous injections were given 2 times (Tuesday and Friday) per week with the first injection (Tuesday) at 9 or 30 mg/kg (in sesame oil, total 0.3 ml), and the second injection (Friday) at 12 or 40 mg/kg (in sesame oil, total 0.4 ml). All rats were injected subcutaneously with calcein at 10 mg/kg on 12 and 2 days before necropsy.
# [2] = system: orchiectomized (ORX) immature male rat; experiment: Orchiectomized immature rat assay (levator ani and ventral prostate weights); assay type: in vivo, Sprague Dawley rat; conditions: 4 days, TP 10 mg/kg = 100%, ORX control = 0%; for % TP Control LA: levator ani weight; for % TP Control VP: ventral prostate weight
# Description: All animal studies were performed in accordance with the Guide for Care and Use of Laboratory Animals (National Research Council, 1996). Twenty-one day old male Sprague Dawley rats were acquired from Taconic, Inc, Germantown, N.Y. Rats were housed five per cage at standard vivarium conditions ([…], 12-h light/dark cycle), with normal chow diet and tap water ad libitum. At 25 days of age, the rats underwent bilateral orchiectomy surgery (ORX) after sedation with 3-5% Isoflurane. Following the surgery, the animals were treated immediately by daily subcutaneous (s.c.) injection with vehicle (sesame oil), testosterone propionate (TP, 10 mg/kg) and test compounds. The dosage of test compound administered is in mg/kg. At the end of the 4 days of administrations, the animals were sacrificed in a carbon dioxide chamber, the ventral prostate (VP) and levator ani muscle complex (LA) were removed and weighed. The increase in the weights of VP or LA by TP was expressed as 100%, and the ORX control as baseline, 0%; the response of the test compounds was calculated as the percentage increase compared to TP.
# [3] = system: aged ovariectomized (OVX) female rat; experiment: Effect on body weight, body composition and bone density in the aged ovariectomized female rat; assay type: in vivo, Sprague-Dawley rat; conditions: OVX rats
# Description: Effect of Selective Androgen Receptor Modulator on Body Weight. Body Composition and Bone Density in the Aged Intact and Ovariectomized Female Rat The purpose of this study is to test the effects of test compound in aged intact or ovariectomized (OVX) female rat model.
# Sprague-Dawley female rats were sham-operated or OVX at 18 months of age, while a group of rats was necropsied at day 0 to serve as baseline controls. One day post-surgery, the rats were treated with either vehicle or test compound. The vehicle or test compound was administered twice a week (Tuesday and Friday) by subcutaneous injection (s.c.), with the test compound being administered at an average dose of 10 milligrams per kilogram of body weight per day (10 mg/kg/day).
# All rats were given s.c. injection of 10 mg/kg of calcein (Sigma, St. Louis, Mo.) for fluorescent bone label 2 and 12 days before necropsy. On the day of necropsy, all rats under ketamine/xylazine anesthesia were weighed and underwent dual-energy X-ray absorptiometry (DXA, QDR-4500/W, Hologic Inc., Waltham, Mass.) equipped with Rat Whole Body Scan software for lean and fat body mass determination. The rats were necropsied, then autopsied and blood was obtained by cardiac puncture. The distal femoral metaphysis and femoral shafts from each rat were analyzed by peripheral quantitative computerized tomography (pQCT), and volumetric total, trabecular and cortical bone mineral content and density were determined.
# Peripheral Quantitative Computerized Tomography (pQCT) Analysis: Excised femurs were scanned by a pQCT X-ray machine (Stratec XCT Research M, Norland Medical Systems, Fort Atkinson, Wis.) with software version 5.40. A 1 millimeter (mm) thick cross section of the femur metaphysis was taken at 5.0 mm ([…], a primary cancellous bone site) and 13 mm (femoral shafts, a cortical bone site) proximal from the distal end with a voxel size of 0.10 mm. Cortical bone was defined and analyzed using contour mode 2 and cortical mode 4. An outer threshold setting of 340 mg/cm^3 was used to distinguish the cortical shell from soft tissue and an inner threshold of 529 mg/cm^3 to distinguish cortical bone along the endocortical surface. Trabecular bone was determined using peel mode 4 with a threshold of 655 mg/cm^3 to distinguish (sub)cortical from cancellous bone. An additional concentric peel of 1% of the defined cancellous bone was used to ensure that (sub)cortical bone was eliminated from the analysis. Volumetric content, density, and area were determined for both trabecular and cortical bone (Jamsa T. et al., Bone 23:155-161, 1998; Ke, H. Z. et al., Journal of Bone and Mineral Research, 16:765-773, 2001). Using the above setting, it was determined that the ex vivo precision of volumetric content, density and area of total bone, trabecular, and cortical regions ranged from 0.99% to 3.49% with repositioning.
# The preceding protocol was carried out using the compound of Example 1 as the test compound. The vehicle employed in experimental groups II-IV was 100% sesame oil. The rats in groups II-IV were dosed s.c. twice a week (on Tuesday and Friday) with 0.3 ml and 0.4 ml. This dosing provided an average daily dose of 10 mg/kg/day of the compound of Example 1 for experimental group IV.
# The values provided in Table 3 are the mean values±the standard error measurement. In Table 3 and the experimental protocol the following abbreviations or symbols had the following definitions. DFM: distal femoral metaphysis; FS: femoral shafts; g: grams; mg/cm^3: milligrams per cubic centimeter; mg/mm: milligrams per millimeter; a: p<0.05 vs. Baseline; b: p<0.05 vs. Sham; c: p<0.05 vs. OVX; mg/kg/day: milligrams per kilogram of body weight per day; and ml: milliliter.
# [4] = Group II (sham, 3 mg/kg/d) compared to Group I (sham + vehicle)
# [5] = sham and ORX rats, 3 or 10 mg/kg/d s.c. for 8 weeks
# [6] = sham and ORX rats, 3 or 10 mg/kg/d s.c. for 8 weeks, dose dependant, except Group II
# [7] = 10 mg/kg/day s.c. twice a week, DXA, mean ± SEM
# [8] = 10 mg/kg/day s.c., distal femoral metaphysis, pQCT, mean ± SEM
# [9] = 10 mg/kg/day s.c., femoral shafts, pQCT, mean ± SEM
# [10] = 10 mg/kg/day, compared to OVX rats administered vehicle
compound,measurement,setting,value
"CC[C@H]1CCCCN1c1ccc(C#N)c(C(F)(F)F)c1 [Example 1, 4-(2-(S)-Ethyl-piperidin-1-yl)-2-trifluoromethyl-benzonitrile]",fat body mass,[1]; [4],slight increase
same,lean body mass,[1]; [4],slight decrease
same,prostate weight,[1]; Group II sham rats (3 mg/kg/d),did not increase
same,prostate weight,"[1]; Group III (sham, 10 mg/kg/d) compared to Group I",slight increase
same,prostate weight,"[1]; ORX rats, 3 or 10 mg/kg/d, dose dependent",increased prostate weight in ORX rats to the level of sham controls
same,levitor anni weight,[1]; [5],increased
same,total density in the femoral shaft (FS),[1]; [5],increased
same,trabecular density in the distal femoral metaphysis (DFM),[1]; [5],increased
same,fat body mass,[1]; [6],decreased
same,lean body mass,[1]; [6],increased
same,% TP Control LA,[2]; 3 mg/kg s.c.,53%
same,% TP Control LA,[2]; 10 mg/kg s.c.,93%
same,% TP Control LA,[2]; 30 mg/kg s.c.,100%
same,% TP Control VP,[2]; 3 mg/kg s.c.,11%
same,% TP Control VP,[2]; 10 mg/kg s.c.,30%
same,% TP Control VP,[2]; 30 mg/kg s.c.,33%
same,Body Weight,"[3]; 10 mg/kg/day s.c. twice a week in sesame oil, mean ± SEM","459 ± 10.7^b,c g"
same,Fat Body Mass,[3]; [7],121.7 ± 7.9^c g
same,lean body mass,[3]; [7],319.0 ± 7.7^c g
same,Total Density of DFM,[3]; [8],602.2 ± 12.3^b mg/cm^3
same,Trabecular Density of DFM,[3]; [8],310.4 ± 0.16 mg/mL
same,Cortical Content of FS,[3]; [9],11.8 ± 0.15^c mg/mm
same,Total Content of FS,[3]; [9],11.9 ± 0.16^c mg/mm
same,effect on body weight,[3]; [10],negligible effect
same,effect on fat body mass,[3]; [10],significantly decreased
same,effect on lean body mass,[3]; [10],significantly increased
